In the NIST ThermoML archive (doi:10.1016/j.fluid.2010.05.013):
± gives the expanded uncertainty stated by the source.

Details: visual observation

Normal melting temperature (Crystal) | Structure (SMILES) | Normal melting temperature (Metastable crystal)
– | CCn1cc[n+](C)c1.O=S(=O)([N-]S(=O)(=O)C(F)(F)F)C(F)(F)F | -17.00 ± 2 °C
17 ± 0.17 °C | CC(O)C(=O)O (stereo not drawn) [2-hydroxypropanoic acid] | –
-20.83 ± 0.17 °C | CCC(=O)O [propanoic acid] | –
